Results from patent US12594276B2, “Inhibitors of human immunodeficiency virus replication” (ViiV Healthcare UK (No.5) Limited, priority 2024, dated 2026).
Read-outs that look alike come from different tables or passages of the source.

What was measured:
[1] = Compound cytotoxicity, XTT-based colorimetric assay; assay type: cell-based; details: human
Procedure: Compound cytotoxicity and the corresponding CC50 values were determined using the same protocol as described in the antiviral assay except that uninfected cells were used. Cytotoxicity was assessed on day 4 in uninfected MT2 cells by using an XTT (2,3-bis[2-Methoxy-4-nitro-5-sulfophenyl]-2H-tetrazolium-5-carboxyanilide inner salt)-based colorimetric assay (Sigma-Aldrich, St Louis, Mo).

[2] = tested on: recombinant NL4-3 virus (nef section replaced with Renilla luciferase gene) in MT-2 cells; experiment: HIV cell culture assay (antiviral activity, luciferase readout); assay type: cell-based; details: Renilla, NL43, MT-2 cells infected for 4-5 days with recombinant NL4-3 Renilla luciferase virus
Procedure: HIV cell culture assay—MT-2 cells, 293T cells and the proviral DNA clone of NL4-3 virus were obtained from the NIH AIDS Research and Reference Reagent Program. MT-2 cells were propagated in RPMI 1640 media supplemented with 10% heat inactivated fetal bovine serum (FBS), […]. The 293T cells were propagated in DMEM media supplemented with 10% heat inactivated FBS, […]. A recombinant NL4-3 proviral clone, in which a section of the nef gene was replaced with the Renilla luciferase gene, was used to make the reference virus used in these studies. The recombinant virus was prepared through transfection of the recombinant NL4-3 proviral clone into 293T cells using Transit-293 Transfection Reagent from Mirus Bio LLC (Madison, WI). Supernatant was harvested after 2-3 days and the amount of virus present was titered in MT-2 cells using luciferase enzyme activity as a marker by measuring luciferase enzyme activity. Luciferase was quantitated using the EnduRen Live Cell Substrate from Promega (Madison, WI). Antiviral activities of compounds toward the recombinant virus were quantified by measuring luciferase activity in MT-2 cells infected for 4-5 days with the recombinant virus in the presence of serial dilutions of the compound.
The 50% effective concentration (EC50) was calculated by using the exponential form of the median effect equation where (Fa)=1/[1+(ED50/drug conc.)m](Johnson V A, Byington R T. Infectivity Assay. In Techniques in HIV Research. ed. Aldovini A, Walker B D. 71-76. New York: Stockton Press. 1990). Curve fitting and analysis were performed with ActivityBase XE Runner software version 9.1.0.4 using model 203 (ID Business Solutions, LTD, Guildford, UK).

[3] = uninfected MT2 cells, day 4, XTT, read-out: CC50

Structure (SMILES) | CC50 at 4 days [1, 3] [nM] | EC50 [2] [pM] | CC50 at 4 days [1] [nM]
Cc1cc(C2CCC(F)(F)CC2)nc2nc([C@H](Cc3cc(F)cc(F)c3)NC(=O)Cn3nc(C4CC4)c4c3C[C@@H]3C[C@H]43)n(-c3ccc(Cl)c4c(NS(C)(=O)=O)nn(CCN5CCCC(F)(F)C5)c34)c(=O)c12 (atropisomer, axis not shown; (P)) [Example 2, N-[(1S)-1-[(3P)-3-{4-chloro-1-[2-(3,3-difluoropiperidin-1-yl)ethyl]-3-methanesulfonamido-1H-indazol-7-yl}-7-(4,4-difluorocyclohexyl)-5-methyl-4-oxo-3H,4H-pyrido[2,3-d]pyrimidin-2-yl]-2-(3,5-difluorophenyl)ethyl]-2-[(2S,4S)-9-cyclopropyl-7,8-diazatricyclo[4.3.0.0^2,^4]nona-1(6),8-dien-7-yl]acetamide] | > 50 | 8 | 
Cc1cc(C2CCC(F)(F)CC2)nc2nc([C@H](Cc3cc(F)cc(F)c3)NC(=O)Cn3nc(C4CC4)c4c3C[C@@H]3C[C@H]43)n(-c3ccc(Cl)c4c(NS(C)(=O)=O)nn(CCN5CCCC(F)(F)CC5)c34)c(=O)c12 (atropisomer, axis not shown; (P)) [Example 3, N-[(1S)-1-[(3P)-3-{4-chloro-1-[2-(4,4-difluoroazepan-1-yl)ethyl]-3-methanesulfonamido-1H-indazol-7-yl}-7-(4,4-difluorocyclohexyl)-5-methyl-4-oxo-3H,4H-pyrido[2,3-d]pyrimidin-2-yl]-2-(3,5-difluorophenyl)ethyl]-2-[(2S,4S)-9-cyclopropyl-7,8-diazatricyclo[4.3.0.0^2,^4]nona-1(6),8-dien-7-yl]acetamide] | > 50 | 9 | 
Cc1cc(C2CCC(F)(F)CC2)nc2nc([C@H](Cc3cc(F)cc(F)c3)NC(=O)Cn3nc(C4CC4)c4c3C[C@@H]3C[C@H]43)n(-c3ccc(Cl)c4c(NS(C)(=O)=O)nn(CCN5C[C@H]6CC[C@@H](C5)O6)c34)c(=O)c12 (atropisomer, axis not shown; (P)) [Example 4, N-[(1S)-1-[(3P)-3-(4-chloro-3-methanesulfonamido-1-{2-[(1R,5S)-8-oxa-3-azabicyclo[3.2.1]octan-3-yl]ethyl}-1H-indazol-7-yl)-7-(4,4-difluorocyclohexyl)-5-methyl-4-oxo-3H,4H-pyrido[2,3-d]pyrimidin-2-yl]-2-(3,5-difluorophenyl)ethyl]-2-[(2S,4S)-9-cyclopropyl-7,8-diazatricyclo[4.3.0.0^2,^4]nona-1(6),8-dien-7-yl]acetamide] | > 50 | 7 | 
Cc1cc(C2CCC(F)(F)CC2)nc2nc([C@H](Cc3cc(F)cc(F)c3)NC(=O)Cn3nc(C(F)F)c4c3C(F)(F)[C@@H]3C[C@H]43)n(-c3ccc(Cl)c4c(NS(C)(=O)=O)nn(CCN5C[C@H](F)C[C@H](F)C5)c34)c(=O)c12 (atropisomer, axis not shown; (P)) [Example 5, N-[(1S)-1-[(3P)-3-(4-chloro-1-{2-[(3R,5S)-3,5-difluoropiperidin-1-yl]ethyl}-3-methanesulfonamido-1H-indazol-7-yl)-7-(4,4-difluorocyclohexyl)-5-methyl-4-oxo-3H,4H-pyrido[2,3-d]pyrimidin-2-yl]-2-(3,5-difluorophenyl)ethyl]-2-[(2S,4R)-9-(difluoromethyl)-5,5-difluoro-7,8-diazatricyclo[4.3.0.0^2,4]nona-1(6),8-dien-7-yl]acetamide] | > 20000 | 9 | 
Cc1cc(C2CCC(F)(F)CC2)nc2nc([C@H](Cc3cc(F)cc(F)c3)NC(=O)Cn3nc(C4CC4)c4c3C[C@@H]3C[C@H]43)n(-c3ccc(Cl)c4c(NS(C)(=O)=O)nn(CCN5[C@@H]6CC[C@H]5COC6)c34)c(=O)c12 (atropisomer, axis not shown; (P)) [Example 6, N-[(1S)-1-[(3P)-3-(4-chloro-3-methanesulfonamido-1-{2-[(1R,5S)-3-oxa-8-azabicyclo[3.2.1]octan-8-yl]ethyl}-1H-indazol-7-yl)-7-(4,4-difluorocyclohexyl)-5-methyl-4-oxo-3H,4H-pyrido[2,3-d]pyrimidin-2-yl]-2-(3,5-difluorophenyl)ethyl]-2-[(2S,4S)-9-cyclopropyl-7,8-diazatricyclo[4.3.0.0^2,^4]nona-1(6),8-dien-7-yl]acetamide] |  | 6 | > 50
Cc1cc(C2CCC(F)(F)CC2)nc2nc([C@H](Cc3cc(F)cc(F)c3)NC(=O)Cn3nc(C4CC4)c4c3C[C@@H]3C[C@H]43)n(-c3ccc(Cl)c4c(NS(C)(=O)=O)nn(CCN5C[C@H]6C[C@@H](C5)O6)c34)c(=O)c12 (atropisomer, axis not shown; (P)) [Example 7, N-[(1S)-1-[(3P)-3-(4-chloro-3-methanesulfonamido-1-{2-[(1R,5S)-6-oxa-3-azabicyclo[3.1.1]heptan-3-yl]ethyl}-1H-indazol-7-yl)-7-(4,4-difluorocyclohexyl)-5-methyl-4-oxo-3H,4H-pyrido[2,3-d]pyrimidin-2-yl]-2-(3,5-difluorophenyl)ethyl]-2-[(2S,4S)-9-cyclopropyl-7,8-diazatricyclo[4.3.0.0^2,^4]nona-1(6),8-dien-7-yl]acetamide] |  | 9 | > 50
Cc1cc(C2CCC(F)(F)CC2)nc2nc([C@H](Cc3cc(F)cc(F)c3)NC(=O)Cn3nc(C4CC4)c4c3C[C@@H]3C[C@H]43)n(-c3ccc(Cl)c4c(NS(C)(=O)=O)nn(CCN5C[C@H]6C[C@@H]5CO6)c34)c(=O)c12 (atropisomer, axis not shown; (P)) [Example 9, N-[(1S)-1-[(3P)-3-(4-chloro-3-methanesulfonamido-1-{2-[(1R,4R)-2-oxa-5-azabicyclo[2.2.1]heptan-5-yl]ethyl}-1H-indazol-7-yl)-7-(4,4-difluorocyclohexyl)-5-methyl-4-oxo-3H,4H-pyrido[2,3-d]pyrimidin-2-yl]-2-(3,5-difluorophenyl)ethyl]-2-[(2S,4S)-9-cyclopropyl-7,8-diazatricyclo[4.3.0.0^2,^4]nona-1(6),8-dien-7-yl]acetamide] | > 50 | 9 | 
COCCNCCn1nc(NS(C)(=O)=O)c2c(Cl)ccc(-n3c([C@H](Cc4cc(F)cc(F)c4)NC(=O)Cn4nc(C5CC5)c5c4C[C@@H]4C[C@H]54)nc4nc(C5CCC(F)(F)CC5)cc(C)c4c3=O)c21 (atropisomer, axis not shown; (P)) [Example 10, N-[(1S)-1-[(3P)-3-(4-chloro-3-methanesulfonamido-1-{2-[(2-methoxyethyl)amino]ethyl}-1H-indazol-7-yl)-7-(4,4-difluorocyclohexyl)-5-methyl-4-oxo-3H,4H-pyrido[2,3-d]pyrimidin-2-yl]-2-(3,5-difluorophenyl)ethyl]-2-[(2S,4S)-9-cyclopropyl-7,8-diazatricyclo[4.3.0.0^2,^4]nona-1(6),8-dien-7-yl]acetamide] | > 50 | 60 | 
Cc1cc(C2(F)CCC(F)(F)CC2)nc2nc([C@H](Cc3cc(F)cc(F)c3)NC(=O)Cn3nc(C(F)F)c4c3C(F)(F)[C@@H]3C[C@H]43)n(-c3ccc(Cl)c4c(NS(C)(=O)=O)nn(CCN5C[C@H](F)C[C@H](F)C5)c34)c(=O)c12 (atropisomer, axis not shown; (P)) [Example 11, N-[(1S)-1-[(3P)-3-(4-chloro-1-{2-[(3R,5S)-3,5-difluoropiperidin-1-yl]ethyl}-3-methanesulfonamido-1H-indazol-7-yl)-5-methyl-4-oxo-7-(1,4,4-trifluorocyclohexyl)-3H,4H-pyrido[2,3-d]pyrimidin-2-yl]-2-(3,5-difluorophenyl)ethyl]-2-[(2S,4R)-9-(difluoromethyl)-5,5-difluoro-7,8-diazatricyclo[4.3.0.0^2,4]nona-1(6),8-dien-7-yl]acetamide] | > 20000 | 9 | 
Cc1cc(C2(F)CCC(F)(F)CC2)nc2nc([C@H](Cc3cc(F)cc(F)c3)NC(=O)Cn3nc(C4CC4)c4c3C[C@@H]3C[C@H]43)n(-c3ccc(Cl)c4c(NS(C)(=O)=O)nn(CCN5C[C@H](F)C[C@H](F)C5)c34)c(=O)c12 (atropisomer, axis not shown; (P)) [Example 12, N-[(1S)-1-[(3P)-3-(4-chloro-1-{2-[(3R,5S)-3,5-difluoropiperidin-1-yl]ethyl}-3-methanesulfonamido-1H-indazol-7-yl)-5-methyl-4-oxo-7-(1,4,4-trifluorocyclohexyl)-3H,4H-pyrido[2,3-d]pyrimidin-2-yl]-2-(3,5-difluorophenyl)ethyl]-2-[(2S,4S)-9-cyclopropyl-7,8-diazatricyclo[4.3.0.0^2,4]nona-1(6),8-dien-7-yl]acetamide] | > 20000 | 12 | 
